Tested on: GM-CSF expression in Kras^G12D-PDEC
Assay: GM-CSF mRNA expression in GFP-Kras^G12D-PDEC after pathway inhibitor treatment (quantitative RT-PCR)
Type: cell-based, mouse
Details: 24 hour treatment; U0126 2 μM, LY294002 10 μM (FIG. 3B)
Excerpt: Data are presented as an average fold induction over values from GFP-WT-PDEC or normal pancreata. Error bars indicate SD (n=3). […] Error bars indicate SD (n=3). […] Data are presented as an average fold induction over values from normal pancreatic tissue. Error bars indicate SD (n=3). FIG. 3D are photomicrographs showing immunohistochemical staining for GM-CSF protein in representative samples of human pancreatic cancer containing PanIN lesions (i-normal duct from adjacent non-malignant tissue; ii-iii PanIN lesions; iv-invasive PDA). White arrowheads indicate pancreatic duct (i), PanIN (ii and iii), and PDA (iv). Scale bars=50 μm. Extraction and reverse transcription of total RNA from PDECs was performed using RNeasy mini kit (QIAGEN) and QuantiTect reverse transcription kit (QIAGEN), respectively. SYBR Green PCR Master Mix (USB) was used for amplification and the samples were run on the Stratagene Mx 3005P. Expression levels were normalized by GAPDH.

## N#CC(=C(/N)Sc1ccccc1N)/C(C#N)=C(\N)Sc1ccccc1N [U0126]
  GM-CSF expression in Kras^G12D-PDEC: abrogation of GM-CSF expression

Source: patent publication US9901079B2, “Inhibition of oncogenic kras-induced GM-CSF production and function” (New York University, priority 2011, dated 2018)
